pIC50, pKi: −log10 of the molar value.
Experiments:
Glycine receptor = Glycine receptor (Rattus norvegicus, UniProt P22771+P24524+P07727+P20781); type: cell membranes, Wistar, Spinal cord, Membrane; further: in other assays of this panel Not Active means under 50% inhibition at 10 µM
[1] = target: T1, C-X-C chemokine receptor type 2 (Homo sapiens, UniProt P25025); type: cell membranes, Membrane; conditions: cho-k1; further: in other assays of this panel Not Active means under 50% inhibition at 10 µM
T1 sequence (P25025 whole entry): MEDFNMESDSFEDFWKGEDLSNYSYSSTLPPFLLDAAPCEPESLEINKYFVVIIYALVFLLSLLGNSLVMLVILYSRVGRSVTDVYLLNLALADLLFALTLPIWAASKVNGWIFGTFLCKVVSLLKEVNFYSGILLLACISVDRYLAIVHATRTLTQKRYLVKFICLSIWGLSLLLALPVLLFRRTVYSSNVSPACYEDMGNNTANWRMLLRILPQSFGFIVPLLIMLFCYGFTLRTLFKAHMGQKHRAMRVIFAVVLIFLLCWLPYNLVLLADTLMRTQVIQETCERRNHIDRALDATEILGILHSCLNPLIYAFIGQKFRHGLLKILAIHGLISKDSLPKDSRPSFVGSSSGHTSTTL

[2] = DRUGMATRIX: Calcium Channel Type L, Dihydropyridine radioligand binding (ligand: [3H] Nitrendipine); type: cell membranes, Rattus norvegicus, Wistar, Cerebral cortex, Membrane; conditions: Not Active = under 50% inhibition at 10 µM
Calcitonin receptor = target: T2, Calcitonin receptor (Homo sapiens, UniProt P30988); type: cell membranes, Membrane; conditions: t47d; further: in other assays of this panel Not Active means under 50% inhibition at 10 µM
T2 sequence (P30988 whole entry): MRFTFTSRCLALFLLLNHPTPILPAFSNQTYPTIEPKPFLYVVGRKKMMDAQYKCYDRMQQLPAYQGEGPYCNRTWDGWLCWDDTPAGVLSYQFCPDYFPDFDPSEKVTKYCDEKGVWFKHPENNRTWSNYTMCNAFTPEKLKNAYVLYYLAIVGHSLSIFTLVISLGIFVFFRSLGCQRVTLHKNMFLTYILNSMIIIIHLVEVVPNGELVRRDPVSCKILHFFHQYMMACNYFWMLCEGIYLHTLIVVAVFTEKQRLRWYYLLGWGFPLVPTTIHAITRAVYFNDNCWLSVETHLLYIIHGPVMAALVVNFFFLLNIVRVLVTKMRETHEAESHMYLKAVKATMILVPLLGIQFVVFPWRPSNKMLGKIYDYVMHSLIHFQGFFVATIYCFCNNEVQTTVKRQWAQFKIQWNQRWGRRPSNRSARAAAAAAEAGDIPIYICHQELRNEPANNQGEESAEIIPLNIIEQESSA

[3] = target: Platelet-activating factor receptor (Homo sapiens, UniProt P25105); type: tissue-based; further: in other assays of this panel Not Active means under 50% inhibition at 10 µM
Melanocortin receptor 3 = Melanocortin receptor 3 (Homo sapiens, UniProt P41968); type: cell membranes, Membrane; conditions: hek293; further: in other assays of this panel Not Active means under 50% inhibition at 10 µM
[4] = DRUGMATRIX: Atrial Natriuretic Factor (ANF) radioligand binding (ligand: [125I] ANF (rat)); type: cell membranes, Cavia porcellus, Dunkin-Hartley, Adrenal gland, Membrane; conditions: Not Active = under 50% inhibition at 10 µM
[5] = target: T3, Nitric oxide synthase, inducible (Mus musculus, UniProt P29477); set-up: species or system Escherichia coli
T3 sequence (P29477 whole entry): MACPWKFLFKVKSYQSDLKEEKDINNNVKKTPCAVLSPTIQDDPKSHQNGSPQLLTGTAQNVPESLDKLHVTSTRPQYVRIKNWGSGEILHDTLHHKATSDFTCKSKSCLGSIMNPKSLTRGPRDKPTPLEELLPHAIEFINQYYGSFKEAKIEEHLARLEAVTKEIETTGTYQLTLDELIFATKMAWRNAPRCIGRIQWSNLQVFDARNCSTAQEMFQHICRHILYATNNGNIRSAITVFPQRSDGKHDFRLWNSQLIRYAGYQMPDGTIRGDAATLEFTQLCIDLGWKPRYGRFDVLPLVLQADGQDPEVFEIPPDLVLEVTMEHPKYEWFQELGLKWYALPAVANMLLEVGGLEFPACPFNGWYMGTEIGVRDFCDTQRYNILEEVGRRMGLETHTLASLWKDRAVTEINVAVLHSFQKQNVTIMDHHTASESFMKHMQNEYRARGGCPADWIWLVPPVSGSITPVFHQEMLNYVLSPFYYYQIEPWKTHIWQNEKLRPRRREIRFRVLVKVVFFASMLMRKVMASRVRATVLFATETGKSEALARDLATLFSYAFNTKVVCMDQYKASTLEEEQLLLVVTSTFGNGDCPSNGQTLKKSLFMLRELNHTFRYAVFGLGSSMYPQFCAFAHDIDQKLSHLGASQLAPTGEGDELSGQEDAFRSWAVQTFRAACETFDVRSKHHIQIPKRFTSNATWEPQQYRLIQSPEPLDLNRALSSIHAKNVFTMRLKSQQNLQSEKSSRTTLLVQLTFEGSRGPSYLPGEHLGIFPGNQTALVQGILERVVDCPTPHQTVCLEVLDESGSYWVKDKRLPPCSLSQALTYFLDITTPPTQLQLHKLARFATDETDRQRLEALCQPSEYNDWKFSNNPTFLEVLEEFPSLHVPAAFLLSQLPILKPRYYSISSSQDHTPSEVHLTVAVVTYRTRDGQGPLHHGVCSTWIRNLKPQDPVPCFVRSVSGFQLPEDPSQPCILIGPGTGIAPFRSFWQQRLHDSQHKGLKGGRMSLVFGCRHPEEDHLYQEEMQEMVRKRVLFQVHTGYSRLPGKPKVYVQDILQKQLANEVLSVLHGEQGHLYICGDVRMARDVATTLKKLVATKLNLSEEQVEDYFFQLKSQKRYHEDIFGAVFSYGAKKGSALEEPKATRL

Chain of Platelet-activating factor receptor (P25105 whole entry): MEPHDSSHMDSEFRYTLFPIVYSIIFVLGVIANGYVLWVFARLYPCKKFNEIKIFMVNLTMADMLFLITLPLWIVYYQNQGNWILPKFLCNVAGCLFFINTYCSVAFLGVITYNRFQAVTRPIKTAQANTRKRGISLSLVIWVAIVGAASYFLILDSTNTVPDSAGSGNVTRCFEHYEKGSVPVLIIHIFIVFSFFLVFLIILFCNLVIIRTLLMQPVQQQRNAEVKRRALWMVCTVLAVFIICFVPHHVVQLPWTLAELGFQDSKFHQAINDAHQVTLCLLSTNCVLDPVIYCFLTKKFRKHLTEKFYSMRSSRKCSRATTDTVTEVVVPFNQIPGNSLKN
Chain of Melanocortin receptor 3 (P41968 whole entry): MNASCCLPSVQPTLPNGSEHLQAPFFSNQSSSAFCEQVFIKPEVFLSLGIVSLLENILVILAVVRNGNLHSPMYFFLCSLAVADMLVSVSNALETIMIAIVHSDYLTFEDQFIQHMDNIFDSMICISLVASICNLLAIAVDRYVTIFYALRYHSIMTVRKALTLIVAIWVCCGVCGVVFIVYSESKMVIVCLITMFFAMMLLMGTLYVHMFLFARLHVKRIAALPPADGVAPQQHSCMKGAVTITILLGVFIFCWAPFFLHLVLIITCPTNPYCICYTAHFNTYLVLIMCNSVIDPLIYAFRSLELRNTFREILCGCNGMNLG

| Compound | IC50 (Glycine receptor) | IC50 [1] | IC50 [2] | Ki [2] | IC50 (Calcitonin receptor) | IC50 [3] | IC50 (Melanocortin receptor 3) | IC50 [4] | Ki [4] | IC50 [5] | pIC50 ([2]; read-out: IC50) | pKi ([2]; read-out: Ki) |
| --- | --- | --- | --- | --- | --- | --- | --- | --- | --- | --- | --- | --- |
| C#C[C@]1(O)CC[C@H]2[C@@H]3CCc4cc(OC)ccc4[C@H]3CC[C@@]21C [MESTRANOL] | Not Active | Not Active | Not Active | Not Active | Not Active | Not Active | Not Active | Not Active | Not Active | Not Active | – | – |
| CC(=O)Nc1cccc(O)c1 [METACETAMOL] | Not Active | Not Active | Not Active | Not Active | Not Active | Not Active | Not Active | Not Active | Not Active | Not Active | – | – |
| Cc1ncc([N+](=O)[O-])n1CCO [METRONIDAZOLE] | Not Active | Not Active | Not Active | Not Active | Not Active | Not Active | Not Active | Not Active | Not Active | Not Active | – | – |
| CC(C)(C(=O)c1cccnc1)c1cccnc1 [METYRAPONE] | Not Active | Not Active | Not Active | Not Active | Not Active | Not Active | Not Active | Not Active | Not Active | Not Active | – | – |
| Oc1ccc(OCc2ccccc2)cc1 [MONOBENZONE] | Not Active | Not Active | Not Active | Not Active | Not Active | Not Active | Not Active | Not Active | Not Active | Not Active | – | – |
| CC(C)(Oc1ccc(C2CCCc3ccccc32)cc1)C(=O)O (stereo not given) [NAFENOPIN] | Not Active | Not Active | Not Active | Not Active | Not Active | Not Active | Not Active | Not Active | Not Active | Not Active | – | – |
| COc1ccc2cc([C@H](C)C(=O)O)ccc2c1 [NAPROXEN] | Not Active | Not Active | Not Active | Not Active | Not Active | Not Active | Not Active | Not Active | Not Active | Not Active | – | – |
| CC(C)[C@H]1CC[C@H](C(=O)N[C@H](Cc2ccccc2)C(=O)O)CC1 [NATEGLINIDE] | Not Active | Not Active | Not Active | Not Active | Not Active | Not Active | Not Active | Not Active | Not Active | Not Active | – | – |
| CCN[C@@H]1C[C@H](N)[C@@H](O[C@H]2OC(CN)=CC[C@H]2N)[C@H](O)[C@H]1O[C@H]1OC[C@](C)(O)[C@H](NC)[C@H]1O [NETILMICIN] | Not Active | Not Active | Not Active | Not Active | Not Active | Not Active | Not Active | Not Active | Not Active | Not Active | – | – |
| COC(=O)C1=C(C)NC(C)=C(C(=O)OCC(C)C)C1c1ccccc1[N+](=O)[O-] (stereo not given) [NISOLDIPINE] | Not Active | Not Active | – | – | Not Active | Not Active | Not Active | Not Active | Not Active | Not Active | 9.13 | 9.32 |
